According to patent publication US5332739A, “Pyrimidinedione derivatives and antiarrhythmic agents containing same” (Mitsui Toatsu Chemicals, Incorporated, priority 1990, dated 1994):
Where a name gives a salt, the structure may show the parent alone.

What was measured:
[1] = test system: Purkinje fiber of the right ventricular free wall; assay: Influence on Myocardial Action Potential Duration Time (APD75); type: cell-based, hybrid adult dog; conditions: Canis lupus familiaris, 20 min, 20 minutes' incubation, 1 Hz, 37° C.; for percent prolongation of action potential duration (APD75) at 1 µg/mL: Dose 1.0 (μg, ml); for percent prolongation of action potential duration (APD75) at 3 µg/mL: Dose 3.0 (μg, ml); for percent prolongation of action potential duration (APD75) at 10 µg/mL: Dose 10.0 (μg, ml)
Protocol: To a hybrid adult dog, 30 mg/kg of pentobarbital was administered through a vein, and after being anesthetized, the heart was removed. Afterward, the right ventricular free wall of the heart was cut and taken out in a Tyrode solution.
The taken right ventricular free wall was fixed in an incubator at 37° C., and a nutritional solution (20 ml of the Tyrode solution) was refluxed.
In this isolated condition, myocardial action potential duration times (APD75) were measured before and after the administration of the respective compounds prepared in the above examples in Table A and d-sotalol as a control medicine, and APD75 (%) was calculated from the measured results in accordance with the formula: […]
A: APD75 before administration
B: APD75 after administration
Here, APD75 was measured as follows: A field stimulation of 1 Hz was given to the right ventricular free wall, and any variation of an action potential was depicted on an oscilloscope via a glass microelectrode (10 to 20 M.OMEGA.) thrust into a Purkinje fiber of the free wall and via an amplifier. Afterward, a waveform on the oscilloscope was analyzed by the use of a computer, and the time of from a point of the action potential generation to a point of 75% repolarization was measured. This measured time was regarded as the myocardial action potential duration time (APD75).
The compounds and d-sotalol shown in Table A were separately added to the refluxing nutritional solution (20 ml), and after 20 minutes' incubation, APD75 after the administration was calculated from the variation of the myocardial action potential duration time.
Incidentally, this test was carried out in accordance with a Sato et al's method [H. Sato, K. Hashimoto, Arzneimeittel Forschung, 34 (1), 3a, 376-380 (1984)].

[2] = test system: ventricular muscle (right ventricle); assay: Influence on Ventricular Muscle Refractory Period (ERP); type: in vivo, mongrel adult dog; conditions: Canis lupus familiaris, iv, anesthetized dog, read-out: ERP (%; extensibility of refractory period); for change in vivo at 0.1 mg/kg: Dose 0.1 mg/kg i.v.; for change in vivo at 0.3 mg/kg: Dose 0.3 mg/kg i.v.; for change in vivo at 1 mg/kg: Dose 1.0 mg/kg i.v.; for change in vivo at 3 mg/kg: Dose 3.0 mg/kg i.v.
Protocol: Refractory periods were measured in the following manner before and after each of the compounds and d-sotalol shown an Table A was separately administered to a vein or a duodenum, and ERP (%; extensibility of refractory period) was calculated from the measured values in accordance with the following formula: […]
W: Refractory period after administration
Y: Refractory period before administration
To a mongrel adult dog, 30 mg/kg of pentobarbital was administered intravenously, and after being anesthetized, a pair of silver-silver chloride electrodes separated by 3 mm was sewn on an opened right ventricule, and electrical stimulation was given at an interval of 400 msec at a duration time of 4 msec under a current twice as much as the threshold. Afterward, a small amount of alcohol was injected into a sinus artery in order to extinguish a pacemaker activity, and the ventricular refractory period (ERP) was measured under ventricule pacing.
That is, 1 train comprised 10 stimulations, and an interval between two of the trains was usually 400 msec. At the time of the refractory period measurement, however, the above interval was shortened every 10 smec, and the interval between the trains at the time when reaction to the first stimulation of the train disappeared was regarded as the refractory period.
In this case, the electrical stimulation was fed in accordance with a program by a heart stimulation device (Diamedical Co., Ltd.; DHM-226-3).

| SMILES | percent prolongation of action potential duration (APD75) at 1 µg/mL [1] [%] | percent prolongation of action potential duration (APD75) at 3 µg/mL [1] [%] | percent prolongation of action potential duration (APD75) at 10 µg/mL [1] [%] | change in vivo at 0.1 mg/kg [2] [%] | change in vivo at 0.3 mg/kg [2] [%] | change in vivo at 1 mg/kg [2] [%] | change in vivo at 3 mg/kg [2] [%] | percent prolongation of action potential duration (APD75) at 0.3 µg/mL ([1]; Dose 0.3 (μg, ml)) [%] |
| --- | --- | --- | --- | --- | --- | --- | --- | --- |
| Cn1c(N2CCN(CCCOc3ccc(F)cc3)CC2)cc(=O)n(C)c1=O [Compound 1, 1,3-dimethyl-6-[4-(3-[4-fluorophenoxy]propyl)piperazin-1-yl]-2,4(1H,3H)-pyrimidinedione.hydrochloride] | 17 | 22 | 30 | 6 | 12 | 15.8 | 24.3 | – |
| Cn1c(N2CCN(CCCOc3ccc(C(=O)c4ccccc4)cc3)CC2)cc(=O)n(C)c1=O [Compound 9] | 6 | 21 | 30 | 5.6 | 5.6 | 11.1 | 16.7 | – |
| Cn1c(N2CCN(CCCOc3cccc(C#N)c3)CC2)cc(=O)n(C)c1=O [Compound 12] | 4 | 11 | 28 | 0 | 2.1 | 4.3 | 17 | – |
| Cn1c(N2CCN(CCCOc3ccccc3C#N)CC2)cc(=O)n(C)c1=O [Compound 16] | 6 | 14 | 23 | 0 | 0 | 6.7 | 10 | – |
| CC(=O)c1ccccc1OCCCN1CCN(c2cc(=O)n(C)c(=O)n2C)CC1 [Compound 17, 1,3-dimethyl-6-[4-(3-[2-acetylphenoxy)propyl)piperazin-1-yl]-2,4(1H,3H)-pyrimidinedione] | 28 | 43 | 59 | 3.5 | 8.3 | 13.5 | 17.3 | – |
| CC(=O)Nc1ccccc1OCCCN1CCN(c2cc(=O)n(C)c(=O)n2C)CC1 [Compound 18] | – | 11 | 22 | – | 6.3 | 12.5 | – | – |
| CC(C)C(=O)c1ccccc1OCCCN1CCN(c2cc(=O)n(C)c(=O)n2C)CC1 [Compound 25] | 13 | 26 | – | 0 | 0 | 0 | 7.6 | – |
| Cn1c(N2CCN(CCCOc3ccccc3C(=O)CCc3ccccc3)CC2)cc(=O)n(C)c1=O [Compound 31] | 13 | 16 | – | 0 | 0 | 6.3 | 12.9 | – |
| Cn1c(N2CCN(CCCOc3ccccc3N=[N+]=[N-])CC2)cc(=O)n(C)c1=O [Compound 36] | – | 17 | – | 0 | 7.1 | 7.1 | 14.3 | – |
| Cn1c(N2CCN(CCCOc3ccccc3C(=O)C3CCCC3)CC2)cc(=O)n(C)c1=O [Compound 39] | – | 26 | 48 | – | – | – | – | – |
| Cn1c(N2CCN(CCCOc3ccc(Cl)cc3Cl)CC2)cc(=O)n(C)c1=O [Compound 43] | – | 13 | 18 | 0 | 0 | 7.7 | 19.3 | – |
| Cn1c(N2CCN(CCCOc3ccc(Cl)cc3S(C)(=O)=O)CC2)cc(=O)n(C)c1=O [Compound 50] | 6 | 15 | 26 | 0 | 5.6 | 5.6 | 11.1 | – |
| Cn1c(N2CCN(CCCOc3ccc(Cl)cc3C(=O)c3ccccc3)CC2)cc(=O)n(C)c1=O [Compound 51] | 19 | 24 | – | 0 | 6.3 | 6.3 | 12.5 | 11 |
| Cn1c(N2CCN(CCCOc3ccc(Cl)cc3C(=O)c3ccccn3)CC2)cc(=O)n(C)c1=O [Compound 52] | 9 | 14 | 18 | – | – | – | – | – |
| Cn1c(N2CCN(CCCOc3ccc(C(=O)c4ccccc4)cc3F)CC2)cc(=O)n(C)c1=O [Compound 58] | 19 | 29 | 36 | – | – | – | – | – |
| Cn1c(N2CCN(CCOc3ccccc3)CC2)cc(=O)n(C)c1=O [Compound 65, 1,3-dimethyl-6-[4-(2-phenoxyethyl)piperazin-1-yl]-2,4(1H,3H)-pyrimidinedione.hydrochloride] | – | 14 | 17 | 0 | 0 | 0 | 0 | – |
| Cn1c(N2CCN(CCc3ccccc3)CC2)cc(=O)n(C)c1=O [Compound 88, 1,3-dimethyl-6-[4-(2-phenylethyl)-piperazin-1-yl]-2,4(1H,3H)-pyrimidinedione.hydrochloride] | – | 26 | 49 | 2 | 6 | 11.7 | – | – |
| Cn1c(NCCN(CCO)CCCc2ccccc2)cc(=O)n(C)c1=O [Compound 120, 1,3-dimethyl-6-[2-(N-[2-hydroxyethyl]-3-phenylpropylamino)ethylamino]-2,4(1H,3H)-pyrimidinedione.oxalate] | 6 | 14 | 26 | – | – | – | – | – |
| CCN(CCCc1ccccc1)CCNc1cc(=O)n(C)c(=O)n1C [Compound 121, 1,3-dimethyl-6-[2-(N-ethyl-3-phenylpropylamino)ethylamino]-2,4(1H,3H)-pyrimidinedione.oxalate] | 9 | 14 | 16 | – | – | – | – | – |
